Laboratory results as given in patent publication US20100130482A1, “DIA[…] DERIVATIVES AS NICOTINIC ACETYLCHOLINE RECEPTOR LIGANDS” (priority 2004, published 2010).
Counter-ions that a name gives are not always drawn.

Target: T1, α7-subtype of nicotinic receptors (Rattus norvegicus, UniProt Q05941)
T1 construct: Cerebral cortices from male Wistar rats (150-250 g) are homogenised; from tissue; host or cells: rat cerebral cortex membrane homogenate
Assay: In vitro inhibition of 3H-α-bungarotoxine binding in rat brain
Conditions: rat cerebral cortex homogenate; 3H-α-bungarotoxine 2 nM; 2 hours at 37° C.

T1 sequence (Q05941 23-502): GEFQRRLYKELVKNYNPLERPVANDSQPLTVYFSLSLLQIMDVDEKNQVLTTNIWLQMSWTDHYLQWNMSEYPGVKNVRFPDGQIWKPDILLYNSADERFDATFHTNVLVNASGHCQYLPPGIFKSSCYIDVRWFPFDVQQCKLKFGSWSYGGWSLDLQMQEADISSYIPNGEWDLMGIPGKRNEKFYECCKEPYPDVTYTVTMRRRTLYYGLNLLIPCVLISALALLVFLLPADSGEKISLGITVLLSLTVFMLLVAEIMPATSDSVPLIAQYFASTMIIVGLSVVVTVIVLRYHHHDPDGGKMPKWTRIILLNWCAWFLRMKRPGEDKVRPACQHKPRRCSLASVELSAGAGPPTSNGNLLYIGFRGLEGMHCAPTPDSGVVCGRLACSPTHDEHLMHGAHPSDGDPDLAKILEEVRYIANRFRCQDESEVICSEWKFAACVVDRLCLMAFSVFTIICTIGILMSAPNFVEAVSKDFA

Row | Structure (SMILES) | IC50
1 | Nc1ccccc1NC(=O)Nc1ccc(-c2ccc(C(=O)N3CCN4CCC3CC4)o2)cc1 [Compound A1, 1-{4-[5-(1,4-Diaza-bicyclo[3.2.2]nonane-4-carbonyl)-furan-2-yl]-phenyl}-3-(2-aminophenyl)-urea] | 1.2 nM
2 | CC(=O)Nc1ccccc1NC(=O)Nc1ccc(-c2ccc(C(=O)N3CCN4CCC3CC4)o2)cc1 [Compound B2, 1-{4-[5-(1,4-Diaza-bicyclo[3.2.2]nonane-4-carbonyl)-furan-2-yl]-phenyl}-3-(2-acetylaminophenyl)-urea] | 1.6 nM
3 | CCNC(=O)Nc1ccc(-c2ccc(C(=O)N3CCN4CCC3CC4)o2)cc1 [Compound C3, 1-{4-[5-(1,4-Diaza-bicyclo[3.2.2]nonane-4-carbonyl)-furan-2-yl]-phenyl}-3-ethyl-urea] | 0.56 nM

Test system: not given
Assay: not given
Conditions: not given

Row | Structure (SMILES) | melting point
4 | O=C(Nc1ccc(-c2ccc(C(=O)N3CCN4CCC3CC4)o2)cc1)Nc1ccccc1F | 241 °C (dec.)
5 | O=C(Nc1ccc(-c2ccc(C(=O)N3CCN4CCC3CC4)o2)cc1)Nc1cccc(F)c1 | 230 °C
6 | O=C(Nc1ccc(-c2ccc(C(=O)N3CCN4CCC3CC4)o2)cc1)Nc1ccccc1C(F)(F)F | 253 °C (dec.)
7 | O=C(Nc1ccc(-c2ccc(C(=O)N3CCN4CCC3CC4)o2)cc1)Nc1cccc(C(F)(F)F)c1 | 171 °C
8 | O=C(c1ccc(-c2ccc(NC(=S)Nc3ccccc3)cc2)o1)N1CCN2CCC1CC2 | 171.4 to 174.7 °C
9 | O=C(Nc1ccc(-c2ccc(C(=O)N3CCN4CCC3CC4)o2)cc1)Nc1ccccc1Cl | 200 to 211 °C (dec.)
10 | CCNC(=O)Nc1ccccc1NC(=O)Nc1ccc(-c2ccc(C(=O)N3CCN4CCC3CC4)o2)cc1 (as salt: fumaric acid salt) | 162.5 to 165.5 °C
11 | CCNC(=O)Nc1cccc(-c2ccc(C(=O)N3CCN4CCC3CC4)o2)c1 (as salt: fumaric acid salt) | 158 to 161 °C
12 | O=C(Nc1cccc(-c2ccc(C(=O)N3CCN4CCC3CC4)o2)c1)c1ccccc1 (as salt: fumaric acid salt) | 201 to 204 °C
13 | O=C(c1ccc(-c2ccc(-n3cccc3)cc2)o1)N1CCN2CCC1CC2 (as salt: fumaric acid salt) | 222 °C
14 | O=C(c1ccc(-c2ccc(Nc3ncccc3[N+](=O)[O-])cc2)o1)N1CCN2CCC1CC2 (as salt: fumaric acid salt) | 223 °C
15 | CC(=O)Nc1ccccc1NC(=O)Nc1ccc(-c2ccc(C(=O)N3CCN4CCC3CC4)o2)cc1 (as salt: fumaric acid salt) [Compound B2, 1-{4-[5-(1,4-Diaza-bicyclo[3.2.2]nonane-4-carbonyl)-furan-2-yl]-phenyl}-3-(2-acetylaminophenyl)-urea] | 159 to 169 °C
16 | CCNC(=O)Nc1ccc(-c2ccc(C(=O)N3CCN4CCC3CC4)o2)cc1 (as salt: fumaric acid salt) [Compound C3, 1-{4-[5-(1,4-Diaza-bicyclo[3.2.2]nonane-4-carbonyl)-furan-2-yl]-phenyl}-3-ethyl-urea] | 167 to 171 °C
17 | Nc1ccccc1NC(=O)Nc1ccc(-c2ccc(C(=O)N3CCN4CCC3CC4)o2)cc1 [Compound A1, 1-{4-[5-(1,4-Diaza-bicyclo[3.2.2]nonane-4-carbonyl)-furan-2-yl]-phenyl}-3-(2-aminophenyl)-urea] | 174 °C

The next lines start with the values.

Row | melting point | Structure (SMILES)
18 | 151 °C | Nc1ccc(C(=O)Nc2ccc(-c3ccc(C(=O)N4CCN5CCC4CC5)o3)cc2)cc1
19 | 249 to 252 °C | Nc1cccc(C(=O)Nc2ccc(-c3ccc(C(=O)N4CCN5CCC4CC5)o3)cc2)c1
20 | 254 °C | O=C(Nc1ccc(-c2ccc(C(=O)N3CCN4CCC3CC4)o2)cc1)c1ccccc1
21 | 250 to 253.5 °C | O=C(Nc1ccc(-c2ccc(C(=O)N3CCN4CCC3CC4)o2)cc1)c1ccncc1 (as salt: fumaric acid salt)
22 | 198 to 202 °C | O=C(Nc1ccc(-c2ccc(C(=O)N3CCN4CCC3CC4)o2)cc1)Nc1ccccc1[N+](=O)[O-] (as salt: fumaric acid salt)
23 | 283 °C | O=C(Nc1ccc(-c2ccc(C(=O)N3CCN4CCC3CC4)o2)cc1)c1ccccc1[N+](=O)[O-] (as salt: hydrochloric acid salt)
24 | 195 to 210 °C | O=C(Nc1ccc(-c2ccc(C(=O)N3CCN4CCC3CC4)o2)cc1)c1ccc([N+](=O)[O-])cc1 (as salt: hydrochloric acid salt)
25 | > 300 °C | O=C(Nc1ccc(-c2ccc(C(=O)N3CCN4CCC3CC4)o2)cc1)c1cccc([N+](=O)[O-])c1 (as salt: hydrochloric acid salt)
